Like-named read-outs stand apart in the source and are kept apart here.
How the values were obtained:
[1] = test system: MCF-7 human cancer cell line; assay: In vitro anti-proliferative MTT assay; type: cell-based
Method: In the present study, all synthesized cyanopyridine hybrids were subjected to in vitro cytotoxicity testing using the MTT assay method against MCF-7 human cancer.
All cell lines were maintained in RPMI1640 medium containing 10% FBS at 37 °C in 5% CO2 humidified incubator. Cell proliferation assay was determined by the MTT (3-[4,5-dimethyl-2-thiazolyl]-2,5- diphenyl-2H-tetrazolium bromide) method. Briefly, cells were plated in triplicate wells (3–5 × 10^4 cells/well) of 96-well flat-bottomed plates and incubated overnight prior to drug exposure and then treated with different concentrations of the tested compounds for 48 h. After that, 20 μL of MTT reagent at a final concentration of 0.5 mg/mL was added to each well. Cells were then incubated for 2 h with MTT, after which 100 μL of DMSO solution was added to dissolve the formazan salt resulting from the reduction of MTT and the absorbance was read at 570 nm using an automatic plate reader. The IC50 values were calculated according to inhibition ratios from three independent experiments.

[2] = target: T1, PIM-1 kinase (Homo sapiens, UniProt P11309); conditions: cited from earlier work
T1 construct: purchased Promega V4032
T1 sequence (P11309 whole entry): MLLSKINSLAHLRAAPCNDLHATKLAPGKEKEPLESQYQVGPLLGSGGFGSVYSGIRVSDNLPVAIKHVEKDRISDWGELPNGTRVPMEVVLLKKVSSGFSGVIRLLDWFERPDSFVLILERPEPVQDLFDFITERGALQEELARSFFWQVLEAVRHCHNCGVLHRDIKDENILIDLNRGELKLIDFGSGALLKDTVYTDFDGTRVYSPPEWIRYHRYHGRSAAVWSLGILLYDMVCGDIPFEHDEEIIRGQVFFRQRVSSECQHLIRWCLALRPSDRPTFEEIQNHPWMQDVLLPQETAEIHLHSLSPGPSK

[3] = Homo sapiens, MCF7, 48 h, MTT, MCF-7, 48 h treatment, read-out: Cytotoxicity IC50, SD (±), MCF7
[4] = MTT, MCF-7, 48 h treatment, read-out: Cytotoxicity IC50, SD (±), MCF7

Molecule	IC50 [1] [µM]	IC50 [1, 3] [µM]	IC50 [1, 4] [µM]	melting point [°C]	IC50 [2] [nM]
2-(4-(3-Cyano-2-oxo-6-phenyl-1,2-dihydropyridin-4-yl)-2-methoxyphenoxy)-N-phenylacetamide [8a]	14.3 ± 0.59				
2-(4-(6-(4-Chlorophenyl)-3-cyano-2-oxo-1,2-dihydropyridin-4-yl)-2-methoxyphenoxy)-N-phenylacetamide [8d]	18 ± 0.74				
2-(4-(6-(4-Chlorophenyl)-3-cyano-2-oxo-1,2-dihydropyridin-4-yl)-2-methoxyphenoxy)-N-phenylacetamide [9d]	2.05				
COc1cc(-c2cc(-c3ccccc3)[nH]c(=O)c2C#N)ccc1OCC(=O)Nc1ccccc1 [7a, 2-(4-(3-Cyano-2-oxo-6-phenyl-1,2-dihydropyridin-4-yl)-2-methoxyphenoxy)-Nphenylacetamide]		8.06 ± 0.33	8.06 ± 0.33	276 to 278	
COc1cccc(-c2cc(-c3ccc(OCC(=O)Nc4ccccc4)c(OC)c3)c(C#N)c(=O)[nH]2)c1 [7b, 2-(4-(3-Cyano-6-(3-methoxyphenyl)-2-oxo-1,2-dihydropyridin-4-yl)-2methoxyphenoxy)-N-phenylacetamide]		56.8 ± 2.34			
COc1ccc(-c2cc(-c3ccc(OCC(=O)Nc4ccccc4)c(OC)c3)c(C#N)c(=O)[nH]2)cc1 [7c, 2-(4-(3-Cyano-6-(4-methoxyphenyl)-2-oxo-1,2-dihydropyridin-4-yl)-2-methoxyphenoxy)-N-phenylacetamide]		7.72 ± 1.69	7.73 ± 0.32	284 to 286	
COc1cc(-c2cc(-c3ccc(Cl)cc3)[nH]c(=O)c2C#N)ccc1OCC(=O)Nc1ccccc1 [7d, 2-(4-(6-(4-Chlorophenyl)-3-cyano-2-oxo-1,2-dihydropyridin-4-yl)-2methoxyphenoxy)-N-phenylacetamide]		41.1 ± 1.69		276 to 278	
COc1cc(-c2cc(-c3ccc(Br)cc3)[nH]c(=O)c2C#N)ccc1OCC(=O)Nc1ccccc1 [7e, 2-(4-(6-(4-Bromophenyl)-3-cyano-2-oxo-1,2-dihydropyridin-4-yl)-2-methoxyphenoxy)-N-phenylacetamide]		21.9 ± 0.9			
COc1cc(-c2cc(-c3ccco3)[nH]c(=O)c2C#N)ccc1OCC(=O)Nc1ccccc1 [7f, 2-(4-(3-Cyano-6-(furan-2-yl)-2-oxo-1,2-dihydropyridin-4-yl)-2-methoxyphenoxy)-N-phenylacetamide]		3.98	3.98 ± 0.16	296 to 298	
COc1cc(-c2cc(-c3cccs3)[nH]c(=O)c2C#N)ccc1OCC(=O)Nc1ccccc1 [7g, 2-(4-(3-Cyano-2-oxo-6-(thiophen-2-yl)-1,2-dihydropyridin-4-yl)-2-methoxyphenoxy)-N-phenylacetamide]		1.92 ± 0.08	1.93 ± 0.08	293 to 295	
COc1cc(-c2cc(-c3ccncc3)[nH]c(=O)c2C#N)ccc1OCC(=O)Nc1ccccc1 [7i, 2-(4-(3-Cyano-2-oxo-6-(pyridin-4-yl)-1,2-dihydropyridin-4-yl)-2-methoxyphenoxy)-N-phenylacetamide]		23.9 ± 0.98			
COc1cc(-c2cc(-c3ccc4ccccc4c3)[nH]c(=O)c2C#N)ccc1OCC(=O)Nc1ccccc1 [7j, 2-(4-(3-Cyano-6-(naphthalen-2-yl)-2-oxo-1,2-dihydropyridin-4-yl)-2-methoxyphenoxy)-N-phenylacetamide]		20.1 ± 0.83		> 300	
COc1cccc(-c2cc(-c3ccc(OCC(=O)Nc4ccccc4)c(OC)c3)c(C#N)c(OC)n2)c1 [8b, 2-(4-(3-Cyano-2-methoxy-6-(3-methoxyphenyl)-pyridin-4-yl)-2-methoxy-phenoxy)-N-phenylacetamide]		36.2 ± 1.49		158 to 160	
COc1ccc(-c2cc(-c3ccc(OCC(=O)Nc4ccccc4)c(OC)c3)c(C#N)c(OC)n2)cc1 [8c, 2-(4-(3-Cyano-2-methoxy-6-(4-methoxyphenyl)pyridin-4-yl)-2-methoxyphenoxy)-N-phenylacetamide]		3.74 ± 0.15	3.75 ± 0.15	188 to 190	
COc1cc(-c2cc(-c3ccc(Br)cc3)nc(OC)c2C#N)ccc1OCC(=O)Nc1ccccc1 [8e, 2-(4-(6-(4-Bromophenyl)-3-cyano-2-methoxypyridin-4-yl)-2-methoxyphenoxy)-N-phenylacetamide]		42.6 ± 1.75			
COc1cc(-c2cc(-c3ccc4ccccc4c3)nc(OC)c2C#N)ccc1OCC(=O)Nc1ccccc1 [8f]				193 to 195	
COc1cc(-c2cc(-c3ccco3)nc(OC)c2C#N)ccc1OCC(=O)Nc1ccccc1 [8g, 2-(4-(3-Cyano-6-(furan-2-yl)-2-methoxypyridin-4-yl)-2-methoxyphenoxy)-N-phenyl acetamide]		21.3 ± 0.87		178 to 180	
COc1cc(-c2cc(-c3ccccc3)n(C)c(=O)c2C#N)ccc1OCC(=O)Nc1ccccc1 [9a, 2-(4-(3-Cyano-1-methyl-2-oxo-6-phenyl-1,2-dihydropyridin-4-yl)-2-methoxyphenoxy)-N-phenylacetamide]		9.1 ± 0.37	9.1 ± 0.37		
COc1cccc(-c2cc(-c3ccc(OCC(=O)Nc4ccccc4)c(OC)c3)c(C#N)c(=O)n2C)c1 [9b, 2-(4-(3-Cyano-6-(3-methoxyphenyl)-1-methyl-2-oxo-1,2-dihydropyridin-4-yl)-2-methoxyphenoxy)-N-phenylacetamide]		8.79 ± 0.36	8.8 ± 0.36		
COc1ccc(-c2cc(-c3ccc(OCC(=O)Nc4ccccc4)c(OC)c3)c(C#N)c(=O)n2C)cc1 [9c, 2-(4-(3-Cyano-6-(4-methoxyphenyl)-1-methyl-2-oxo-1,2-dihydropyridin-4-yl)-2-methoxyphenoxy)-N-phenylacetamide]		26.1 ± 1.07			
COc1cc(-c2cc(-c3ccc(Br)cc3)n(C)c(=O)c2C#N)ccc1OCC(=O)Nc1ccccc1 [9e, 2-(4-(6-(4-Bromophenyl)-3-cyano-1-methyl-2-oxo-1,2-dihydropyridin-4-yl)-2-methoxyphenoxy)-N-phenylacetamide]		18.3 ± 0.75			
COc1cc(-c2cc(-c3ccc4ccccc4c3)n(C)c(=O)c2C#N)ccc1OCC(=O)Nc1ccccc1 [9f, 2-(4-(3-Cyano-1-methyl-6-(naphthalen-2-yl)-2-oxo-1,2-dihydropyridin-4-yl)-2-methoxyphenoxy)-N-phenylacetamide]		41.4 ± 1.7		193 to 195	
COc1cc(-c2cc(-c3ccco3)n(C)c(=O)c2C#N)ccc1OCC(=O)Nc1ccccc1 [9g, 2-(4-(3-Cyano-6-(furan-2-yl)-1-methyl-2-oxo-1,2-dihydropyridin-4-yl)-2-methoxyphenoxy)-N-phenylacetamide]		13.2 ± 0.54		170 to 172	
N#CC1=C(c2cc3ccccc3nc2Cl)C=C(c2ccc(Br)cc2)NC1Cl (stereo not drawn) [C]					460
COc1cccc2c1C(=O)c1c(O)c3c(c(O)c1C2=O)C[C@@](O)(C(=O)CO)C[C@@H]3O[C@H]1C[C@H](N)[C@H](O)[C@H](C)O1 [Doxorubicin, reference compound]		11.5 ± 0.47	11.5 ± 0.47		
COc1nc(-c2ccc(OCc3ccccc3)cc2)cc(-c2ccc(N(C)C)cc2)c1C#N [F]					130
COc1cc(-c2cc(-c3ccc[n+](C)c3)nc(OC)c2C#N)ccc1OCC(=O)Nc1ccccc1.[I-] [compound 10, 5-cyano-6-methoxy-4-(3-methoxy-4-(2-oxo-2-(phenylamino)ethoxy)phenyl)-1'-methyl-2,3'-bipyridin-1'-iumiodide]		2.13 ± 0.09	2.14 ± 0.09	284 to 286	

Reference: article PMC12081497, “Design, synthesis, and anti-breast cancer activity evaluation of novel 3-cyanopyridine derivatives as PIM-1 inhibitors” (Molecular Diversity, 2024)
